Data on two compounds can be found in US20110294901A1, “FINELY PULVERIZED PHARMACEUTICAL COMPOSITION” (priority 2009, published 2011).

The nature of data set [1]: Particle size measurement with a particle size distribution measuring device (Microtruck X100). The format is physicochemical. As to the method:
Preferably, the particles of the drug contained in the composition according to the present invention have a cumulative 50% particle diameter of not more than 1.5 μm and a cumulative 90% particle diameter of not more than 3.0 μm. More preferably, the cumulative 50% particle diameter and the cumulative 90% particle diameter are not more than 1.0 μm and not more than 2.0 μm, respectively. In the present invention, when a cumulative curve is determined by presuming the total volume of a powder population, of which the particle size distribution is analyzed, to be 100%, the particle diameter of a point at which the cumulative curve is 50% and the particle diameter of a point at which the cumulative curve is 90% are “cumulative 50% particle diameter” and “cumulative 90% particle diameter” (μm), respectively.
The diameters of drug particles obtained by the grinding can be measured by a laser diffraction/scattering-type particle size distribution measuring machine. Specifically, for example, Microtruck (tradename) sold by NIKKISO Co., Ltd. is preferred. […]
The cumulative 50% particle diameter of bulk drug particles in the fine granules in Examples 4 and 5 and Comparative Examples 3 to 5 was measured with a particle size distribution measuring device (manufacturer: NIKKISO Co., Ltd., model: Mircotruck X100).

The nature of data set [2]: Dissolution test (1), paddle method, 1% aqueous polysorbate 80. The class given is physicochemical. Particulars: three hr after the start of the dissolution; 50 mg drug, 100 rpm, 900 mL 1% aqueous polysorbate 80. How it is done: A dissolution test was carried out for the suspension produced in Example 1 (grinding conditions 3) and a liquid obtained by suspending the ground bulk drug obtained in Comparative Example 1 in water.
Each of the suspensions in an amount corresponding to 50 mg of the 22β-methoxyolean-12-ene-3β,24(4β)-diol bulk drug was accurately weighed, and a test was carried out by a dissolution test method, second method (paddle method), specified in Japanese Pharmacopoeia, at a rotation speed of 100 rpm (rotation speed of paddle) using 900 mL of a 1% aqueous polysorbate 80 solution as a test solution. After 15 min, 30 min, 60 min, and 180 min from the start of dissolution, 5 mL of the test solution was collected and was filtered by a membrane filter having a pore diameter of 0.2 μm to give measurement samples. The samples were analyzed by high-performance liquid chromatography (manufacturer: Shimadzu Seisakusho Ltd., model:LC-10ATvp) to determine dissolution rate for each sample.

For `CO[C@@H]1CC(C)(C)C[C@H]2C3=CC[C@@H]4[C@@]5(C)CC[C@H](O)[C@](C)(CO)[C@@H]5CC[C@@]4(C)[C@]3(C)CC[C@@]12C` [22β-methoxyolean-12-ene-3β,24(4β)-diol], the “cumulative 50% particle diameter” value in data set [1] (bulk drug before grinding) is recorded as “about 50 μm”.
For `CO[C@@H]1CC(C)(C)C[C@H]2C3=CC[C@@H]4[C@@]5(C)CC[C@H](O)[C@](C)(CO)[C@@H]5CC[C@@]4(C)[C@]3(C)CC[C@@]12C` [Comparative Example 1, 22β-Methoxyolean-12-ene-3β, 24(4β)-diol], the “cumulative 50% particle diameter of the ground bulk drug” value in data set [1] (ground with jet mill at 0.54 MPa, dispersed in 0.01% aqueous sodium laurylsulfate solution) was found to be 2.5 μm. For the same compound, the dissolution rate in data set [2] stood at 10%.
